# In article PMC3276251 (Chemical Research in Toxicology, 2011):
# “Also recorded” adds a separate entry of the source. Like-named read-outs stand apart in the source and are kept apart here.
# Columns and labels:
# [1] = Isolated perfused rat kidney; format: in vitro ADME, Sprague-Dawley rats; conditions: for Average amount in perfusate per 10-min period / Average amount in urine per 10-min period: 40–50, 50–60, 60–70 and 70–80 min periods, S.D. in parenthesis; for Concentration in perfusate / Concentration in urine: 70–80 min period, perfused with 50 µM AA-I; for Average excretion ratio (XR): mean (S.D.) of 7 collection periods 10–80 min, XR = Cl/(fu × GFR), Cl = Cu × UFR/Cp; for XR (excretion ratio = CLR/CLFILT) / CLFILT (filtration clearance) / Cumulative excretion (urinary) / Kidney accumulation / CL renal at 50 µM: 50 µM dose; for XR (excretion ratio = CLR/CLFILT): AUC method; for CLFILT (filtration clearance): GFR × fu; for Cumulative excretion (urinary) / Kidney accumulation: at 80 min post-dose; for Cumulative AA-I excretion in the urine (Xu): eight periods (0–80 min); for Concentration of AA-I in the urines: last periods; for Concentration of AA-I in the urines / Concentration in the urines: more or less constant; for CL renal at 50 µM: male, Sprague-Dawley, rat, CLR (renal clearance), cumulative urinary excretion / AUC 0–80 min post-dose; for Concentration in the urines: 30–80 min
# albumin in perfusate = albumin in perfusate (Bos taurus, UniProt P02769); assay: Perfusate binding by ultrafiltration; format: in vitro ADME
# Sequence of albumin in perfusate (P02769 25-607): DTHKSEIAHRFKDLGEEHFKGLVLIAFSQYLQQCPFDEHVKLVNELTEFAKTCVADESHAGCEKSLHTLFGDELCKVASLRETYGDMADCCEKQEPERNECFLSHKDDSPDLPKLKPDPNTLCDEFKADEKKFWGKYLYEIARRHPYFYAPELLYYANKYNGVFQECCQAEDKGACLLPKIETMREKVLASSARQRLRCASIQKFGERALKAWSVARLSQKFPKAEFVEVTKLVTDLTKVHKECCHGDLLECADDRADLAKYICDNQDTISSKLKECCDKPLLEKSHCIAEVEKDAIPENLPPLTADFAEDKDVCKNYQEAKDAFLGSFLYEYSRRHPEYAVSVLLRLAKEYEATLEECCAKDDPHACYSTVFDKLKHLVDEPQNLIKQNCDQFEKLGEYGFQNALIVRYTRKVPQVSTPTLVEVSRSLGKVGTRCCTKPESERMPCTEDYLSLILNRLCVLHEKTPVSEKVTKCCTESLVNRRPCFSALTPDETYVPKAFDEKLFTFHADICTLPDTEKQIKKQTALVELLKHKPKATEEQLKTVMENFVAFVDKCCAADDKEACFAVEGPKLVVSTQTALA
# [2] = format: in vivo, male Wistar rats; conditions: 2 mg AA-I subcutaneously; for Amount in the 24 hr urine sample: Wistar rats; for Average concentration in 24-hour collected urine: five rats, standard deviation in parentheses; for Presence in collected rat urine: 24 hr urine
Compound,Average amount in perfusate per 10-min period ([1]; Kidney A),Average amount in urine per 10-min period ([1]; Kidney A),Concentration in perfusate ([1]; Kidney A),Concentration in urine ([1]; Kidney A),Average excretion ratio (XR) ([1]; Kidney A),Average amount in perfusate per 10-min period ([1]; Kidney B),Average amount in urine per 10-min period ([1]; Kidney B),Concentration in perfusate ([1]; Kidney B),Concentration in urine ([1]; Kidney B),Average excretion ratio (XR) ([1]; Kidney B),Amount in the 24 hr urine sample [2],Average concentration in 24-hour collected urine [2],also measured
"COc1cccc2c1cc1c3c(cc4c(c32)OCO4)C(=O)N1 [L-I, aristolactam I]",0.086 (0.062) nanomoles,0.029 (0.013) nanomoles,0.002 µM,0.053 µM,130 (85),0.35 (0.05) nanomoles,0.034 (0.015) nanomoles,0.018 µM,0.055 µM,33 (22),0.01 % of the dose,5.4 (3.8) µg/Lt,fraction unbound (albumin in perfusate): 0.0235
aristolactam Ia [L-Ia],0.97 (0.52) nanomoles,0.10 (0.03) nanomoles,0.010 µM,0.16 µM,62 (50),0.29 (0.09) nanomoles,0.089 (0.071) nanomoles,0.024 µM,,160 (131),3.4 % of the dose,1600 (678) µg/Lt,
"O=C(O)c1cc2c(c3c1ccc1c(O)cccc13)OCO2 [compound 9, 3,4-methylenedioxy-8-hydroxy-1-phenanthrene-1-carboxylic acid]",,,,,,,,,,,,,Presence in collected rat urine [2]: could only occasionally be observed by UV detection
"O=C1Nc2cc3c(OS(=O)(=O)O)cccc3c3c4c(cc1c23)OCO4 [L-Ia-O-S, 8-hydroxy-3,4-methylenedioxy-10-amino-1-phenanthrenecarboxylic acid lactam O-sulfate]",,,,,,,,,,,0.09 % of the dose,53 (24) µg/Lt,
"O=C(O)c1cc2c(c3c1c([N+](=O)[O-])cc1c(OS(=O)(=O)O)cccc13)OCO2 [AA-Ia-O-S, 8-hydroxy-3,4-methylenedioxy-10-nitro-1-phenanthrenecarboxylic acid O-sulfate]",,0.36 (0.05) nanomoles,,0.36 µM,,,0.96 (0.28) nanomoles,,0.74 µM,,,,Identification in the perfusate ([1]; IPK): could not be identified; Presence in collected rat urine ([2]; listed as AA-Ia-O-S (5)): could only occasionally be observed by UV detection; also recorded: trace amounts
"O=C1Nc2cc3c(OC4OC(C(=O)O)C(O)C(O)C4O)cccc3c3c4c(cc1c23)OCO4 [L-Ia-O-G, 8-hydroxy-3,4-methylenedioxy-10-amino-1-phenanthrene-carboxylic acid lactam O-glucuronide]",,0.019 (0.007) nanomoles,,0.031 µM,,,0.012 (0.009) nanomoles,0.014 µM,0.021 µM,,0.09 % of the dose,66 (54) µg/Lt,
"COc1cccc2c1cc([N+](=O)[O-])c1c(C(=O)O)cc3c(c12)OCO3 [AA-I, 8-methoxy-6-nitro-phenanthro[3,4-d]-1,3-dioxole-5-carboxylic acid]",1441 (139) nanomoles,0.36 (0.05) nanomoles,16.07 µM,0.48 µM,0.14 (0.05),2447 (298) nanomoles,1.24 (0.32) nanomoles,23.8 µM,0.94 µM,0.24 (0.05),,68 (17) µg/Lt,"XR (excretion ratio = CLR/CLFILT) ([1]; Kidney A): 0.10; CLFILT (filtration clearance) ([1]; Kidney A): 0.0146 mL/min; Cumulative excretion (urinary) ([1]; Kidney A): 0.063 % dose; Kidney accumulation ([1]; Kidney A): 68 % dose; Cumulative AA-I excretion in the urine (Xu) ([1]; Kidney A): 2.5 µmol; XR (excretion ratio = CLR/CLFILT) ([1]; Kidney B): 0.26; CLFILT (filtration clearance) ([1]; Kidney B): 0.0138 mL/min; Cumulative excretion (urinary) ([1]; Kidney B): 0.162 % dose; Kidney accumulation ([1]; Kidney B): 53 % dose; Cumulative AA-I excretion in the urine (Xu) ([1]; Kidney B): 6.5 µmol; Perfusate concentration of AA-I ([1]; Rat A, at 75 min): ca. 16 µM; Concentration of AA-I in the urines ([1]; Rat A): ~0.5 µM; Perfusate concentration of AA-I ([1]; Rat B, at 75 min): ~23 µM; Concentration of AA-I in the urines ([1]; Rat B): ~1.2 µM; Amounts of AA-I in perfusate and urines ([1]; end of the experiment (80 min)): less than 50 % of the dose; CL renal at 50 µM ([1]; Kidney A): 0.0014 mL/min; CL renal at 50 µM ([1]; Kidney B): 0.003 mL/min; Perfusate concentration of AA-I ([1]; sample taken at 15 min): ca. 28 µM; fraction unbound (albumin in perfusate): 0.0225"
"O=C(O)c1cc2c(c3c1c([N+](=O)[O-])cc1c(O)cccc13)OCO2 [AA-Ia, aristolochic acid Ia]",71.6 (31.0) nanomoles,0.72 (0.11) nanomoles,1.24 µM,0.68 µM,12 (10),38 (10) nanomoles,6.7 (2.6) nanomoles,0.42 µM,4.38 µM,130 (77),14.3 % of the dose,7900 (1300) µg/Lt,"Concentration in the urines ([1]; rat A): ca. 1 µM; Concentration in the urines ([1]; rat B): ~7 µM; fu (fraction unbound to albumin in perfusate) (albumin in perfusate; ultrafiltration, perfusate): 0.0220"
